Results: patent US20250120975A1, “INTEGRIN INHIBITORS FOR TREATMENT OF PRIMARY SCLEROSING CHOLANGITIS” (Pliant Therapeutics, Inc., priority 2023, published 2025)

Test system: PCLivS from human liver tissue with biliary fibrosis (PSC, PBC)
Assay: Fibrotic gene expression (NanoString) in precision cut liver slices
Type: cell-based
Details: PCLivS from a single PSC liver, 2 days
Excerpt: A human liver tissue explant was obtained from a PSC patient undergoing liver transplantation.
Slicing: To slice, 8-mm cores were punctured from the liver tissue and were stored in ice cold UW solution until slicing. A tissue core was glued onto the center of the plunger of the specimen syringe for slicing. The core was embedded in 2% low gelling temperature agarose made up in milliQ water. The thickness of the slice was adjusted to 400 μm and was sectioned into oxygenated KHB occurs. The slices were stored in cold UW solution on ice until all slices were cut.
Culture: The compounds were diluted to 1000× concentration in 100% DMSO. The compounds were diluted in a medium with a final concentration of 0.1% DMSO before transferring the slices and making a fresh medium for each 24-H medium change. Before being used for slice culture, all media was equilibrated in the incubator at culture conditions for 30 minutes. After all slices have been cut, all slices were transferred to wells prefilled with oxygenated, warmed, and equilibrated WEGG. The slices were incubated for 1 hour in the incubator at a temperature of 37° C., 5% CO2, 80% 02, 100% humidity on shaking platform set at 55 rpm. After this one-hour recovery, the slices were transferred to wells prefilled with oxygenated, warmed, and equilibrated WEGG with appropriate treatments. The slices were distributed into the treatment groups to account for inter-core variability. The slices were cultured at 37° C., 80% 02, 5% CO2, 100% humidity on shaking platform set at 55 rpm. The medium was changed after 24 hours.
The slices were removed from the well and rinsed in PBS. Excess liquid was removed. The slices were transferred to a microtube pooling all three slices from the same treatment into one tube. The pooled slices were snap frozen in liquid nitrogen and placed on dry ice until all samples were collected and then transferred to −80° C. for storage. For media collection, 140 μL of medium was pooled from each well within a treatment group and transferred to a 96-well Axygen plate. After sealing the plate, spin down occurred at 4000×g for 10 minutes at 4° C. Then, 130 μL aliquots were transferred into 3 new plates. The plates were sealed and stored at −80° C.
(S)-4-((2-methoxyethyl)(4-(5,6,7,8-tetrahydro-1,8-naphthyridin-2-yl)butyl)amino)-2-(quinazolin-4-ylamino)butanoic acid was tested at 100 nM, 1 μM, and 10 μM. OCA, an FXR agonist in clinical trials for PSC, was used at 250 nM and 2.5 μM reflecting Cmax levels observed in clinical trials. An ALK5 inhibitor (R268712) was used at 1 μM (400 times its IC50 per manufacturer) to target max inhibition of the ALK5 receptor.
Methods: Lysis buffer was made with one third RLT buffer in RNAse-free water and 2 mg/mL proteinase K. About 100-200 μL lysis buffer was added to each pool of 3 liver slices. Samples were incubated at 55° C. in the bead bath for 2 hours and 45 minutes, vortexing every 30 minute. Samples were centrifuged and the supernatant aliquoted in 15 μL aliquots into 96-well Axygen plates.
Methods: nCounter PlexSet was run according to standard protocol. Briefly, probe A and probe B were diluted with TE-tween to Working Probe Pools and mixed with hybridization buffer. This master mix was added to the A-H PlexSets and mixed. Each PlexSet was added across a row to a 96 well qPCR plate and proteinase K was added to a final concentration of 2 mg/mL. Lysate from samples was added to appropriate wells and mixed. The plate was sealed, spun, and placed in thermocycler at 67° C. for 16 hours. Hybridized samples were pooled down columns and 35 μL were loaded on a Sprint Cartridge and run on the nCounter Sprint. Data analysis was performed in nSolver using background thresholding based on negative controls, positive control normalization, reference sample normalization and normalization to housekeeping genes (GUSB, HPRT1, POLR1B, RPLP0, SRFS4, and/or UBC). […]

| Structure (SMILES) | % Inhibition of expression COL1A1 (1 μM) | % Inhibition of expression COL1A2 (1 μM) | % Inhibition of expression COL1A1 (250 nM) | % Inhibition of expression COL1A2 (250 nM) | % Inhibition of expression COL1A1 (2.5 μM) | % Inhibition of expression COL1A2 (2.5 μM) |
| --- | --- | --- | --- | --- | --- | --- |
| Cc1cccc(-c2[nH]ncc2-c2ccc(F)c(-c3cnn(CCO)c3)c2)n1 [Alk5 Inh., reference compound] | 79% | 46% |  |  |  |  |
| CC[C@H]1[C@@H](O)[C@@H]2[C@H](CC[C@]3(C)[C@@H]([C@H](C)CCC(=O)O)CC[C@@H]23)[C@@]2(C)CC[C@@H](O)C[C@@H]12 [OCA, obeticholic acid, reference compound] |  |  | 44% | 19% | 35% | 15% |
